The text below walks through data of publication PMC11222147, “Host defence peptide plectasin targets bacterial cell wall precursor lipid II by a calcium-sensitive supramolecular mechanism” (Nature Microbiology, 2024).

One data set has as its system S. simulans 22. The data set is described as follows: MIC assays under standard conditions. Format: cell-based, Staphylococcus simulans. In outline: (§1)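 Broth microdilution in cation-adjusted MHB, inoculum from OD600 0.5 TSB culture diluted 100-fold, 37 °C with shaking. Streptococci: 5% lysed horse blood, 5% CO2, MIC read visually at 20–24 h; S. simulans read at 16–20 h.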

A further data set relates to S. pneumoniae ATCC6305. The data set is described as follows: MIC assays under standard conditions. Format: cell-based, Streptococcus pneumoniae. The note with it: Supplementary Table 1; cation-adjusted MHB + 5% lysed horse blood, 5% CO2, 20–24 h. The method in brief: as §1
A further data set relates to S. pneumoniae serotype 8. The data set is described as follows: MIC assays under standard conditions. Type of data set: cell-based, Streptococcus pneumoniae. Conditions: Supplementary Table 1; cation-adjusted MHB + 5% lysed horse blood, 5% CO2, 20–24 h. In outline:
as §1

Data set [1] can be described thus: Tryptophan fluorescence spectroscopy, lipid II binding affinity. The procedure:
Plectasin’s single tryptophan can be used to monitor insertion into the membrane. Measurements were done on a Cary Eclipse (FL0904M005) fluorimeter at 20 °C under constant stirring in a 4 × 10 mm quartz cuvette. For titration experiments, the cuvette was oriented perpendicular to the excitation beam to minimize scattering. LUVs with or without 2 mol% lipid II (prepared as described above at 1–5 mM total lipid concentration) were titrated to 100 nM plectasin in 50 mM HEPES, 150 mM NaCl at pH = 7.2. Fluorescence was excited at 280 nm (5 nm slit) and recorded between 300 and 400 nm (10 nm slit) at 1 nm intervals with 1 s averaging per point. Spectra were corrected for a blank using buffer and for scattering using a titration series in the absence of plectasin. Corrected spectra were fit with log-normal distributions, and the shift of the resulting wavelength of maximum fluorescence (Δλmax) as a function of lipid II concentration on the outside of the vesicles was fit using a quadratic binding equation[54] to obtain the binding affinities.

For another data set, the system named is S. simulans. The data set is described as follows: DPH anisotropy membrane fluidity measurements. Format: cell-based, Staphylococcus simulans. The note with it: intact S. simulans cells, 1 µM plectasin, 37 °C, biological triplicates. As for the experimental part: Preparation of S. simulans stock solutions was done as described above for bacterial permeabilization in PBS. About 1 ml of a cell suspension of OD600 = 0.1 in PBS was treated with 1 µM plectasin and incubated at 37 °C. All assays were performed on a Cary Eclipse (FL0904M005) fluorometer fitted with a manual polarizer accessory (Varian). Measurements were conducted at 37 °C under constant stirring in a 4 × 10 mm quartz cuvette. About 10 µM DPH was added from a 1 mM stock in dimethyl sulfoxide (bringing the final dimethyl sulfoxide concentration to 1 vol%) and incubated for 5 min. Fluorescence was excited with 380 nm light (10 nm slit) and recorded between 430 and 520 nm (10 nm slit) with 0.5 s averaging time and data interval of 1.66 nm per point. Fluorescence anisotropy was calculated using the maximum intensity of each spectrum according to the following equation (where IVV and IVH represent the fluorescence intensity using parallel and orthogonal excitation and emission polarization filters, respectively): r=IVV−IVH/IVV+2IVH

A short description of data set [2]: Confocal microscopy of GUVs doped with Und-NBD-lipid II. Conditions: GUVs 0.4 mol% Und-NBD-LII in DOPC, 1 μM antibiotic. The procedure: GUVs were prepared by electroformation using in-house build Teflon cells with two titanium wires as electrodes. About 1 μl of 0.5 mM DOPC with 0.4 mol% NBD–lipid II in 2:1 CHCl3/MeOH was brushed on both electrodes and thoroughly dried under vacuum. Next, the cell was filled with 350 μl 300 mM sucrose, and GUVs were formed by applying an oscillating voltage (sine wave, 2 V, 10 Hz) for 90 min and released from the electrodes (square wave, 2 V, 2 Hz). Microscopy slides were precoated using a 1 mg ml^−1 BSA solution. Slides were filled with 300 μl 300 mM glucose solution, followed by addition of the antibiotic and finally 30–50 μl GUV solution. The GUVs were imaged using a Zeiss LSM 880 confocal microscope with a ×63/1.2NA glycerol objective lens. Green fluorescence (530–545 nm) was detected after excitation with a 488 nm laser.

The nature of data set [3]: Carboxyfluorescein leakage from LUVs. As for the experimental part: Vesicle leakage assays were conducted using LUVs filled with carboxyfluorescein. Carboxyfluorescein solutions were made by suspending ~50 mM carboxyfluorescein in H2O and adjusting the pH to ~7.2 using 10 M NaOH. The resulting solution was diluted with H2O to match the osmolarity of the outside buffer, which consisted of 10 mM Tris and 100 mM NaCl, at pH = 7.2. LUVs were prepared as described above. Non-enclosed carboxyfluorescein was removed using a Sephadex G50 column equilibrated in outside buffer. Measurements were conducted on a Cary Eclipse spectrophotometer at 20 °C under constant stirring by monitoring the fluorescence intensity at 515 nm (excitation at 492 nm, 5 nm slit width, 0.1 s averaging time). A total lipid concentration of 25 µM was used for all experiments. Fluorescence traces were normalized using the fluorescence baseline at the start as 0% and fluorescence after treatment with 0.1 vol% Triton-X100 as 100%.

The next data set relates to mammalian cells. The note with it: cited from earlier work.

Molecules are shown by their SMILES. Converted amounts (≈) assume the structure as drawn.

Consider `CC[C@H](C)[C@@H]1NC(=O)[C@H](CO)NC(=O)[C@H](CCCCN)NC(=O)[C@@H]2CSSC[C@@H](C(=O)N[C@@H](Cc3ccc(O)cc3)C(=O)O)NC(=O)[C@H](CCCCN)NC(=O)[C@@H]3CSSC[C@H](NC(=O)[C@H](CCC(N)=O)NC(=O)[C@H](CCSC)NC(=O)[C@H](CC(=O)O)NC(=O)[C@H](CC(=O)O)NC(=O)[C@H](CCC(=O)O)NC(=O)[C@H](CC(=O)O)NC(=O)[C@H](Cc4c[nH]c5ccccc45)NC(=O)[C@@H]4CCCN4C(=O)CNC(=O)[C@H](CC(N)=O)NC(=O)[C@@H](NC(=O)CNC(=O)[C@H](Cc4ccccc4)NC(=O)CN)CSSC[C@H](NC(=O)[C@H](Cc4ccc(O)cc4)NC(=O)CNC(=O)CNC(=O)[C@H](CCCCN)NC(=O)[C@H](Cc4ccc(O)cc4)NC(=O)CNC(=O)[C@H](CCCCN)NC1=O)C(=O)N[C@@H](C)C(=O)N[C@@H](CCCCN)C(=O)NCC(=O)NCC(=O)N[C@@H](Cc1ccccc1)C(=O)N[C@@H](C(C)C)C(=O)N3)C(=O)N[C@@H](Cc1c[nH]cn1)C(=O)N[C@@H](CC(N)=O)C(=O)N[C@@H](Cc1c[nH]cn1)C(=O)N2` [Plectasin wt], for which the “Minimum inhibitory concentration, S. simulans” value with S. simulans 22 (Supplementary Table 1, cation-adjusted MHB, 37 °C, 16–20 h) is 0,78 μg/mL. Besides, the “MIC expressed as plectasin concentration” value against S. simulans 22 (corresponding to 0.78 µg ml^−1) is reported as 177 nM (≈ 0.779 µg/mL). The “Minimum inhibitory concentration, S. pneumoniae ATCC6305” value in the data set on S. pneumoniae ATCC6305 is no more than 0.78 µg/mL. Besides, the “Minimum inhibitory concentration, S. pneumoniae serotype 8” value in the data set with S. pneumoniae serotype 8 was 1,56 μg/mL. Moreover, the Kd in data set [1] (DOPC liposomes, 1 mM Mg^2+) was 80 nM; in data set [1] (DOPC liposomes, without bivalent ions (100 μM EDTA)) it was 155 nM; in data set [1] (anionic DOPC/DOPG (1:1) liposomes, 1 mM Ca^2+), 1 nM; in data set [1] (anionic DOPC/DOPG (1:1) liposomes, 1 mM Mg^2+), 4 nM; in data set [1] (anionic DOPC/DOPG (1:1) liposomes, without bivalent ions (100 μM EDTA)), 27 nM; in data set [1] (zwitterionic DOPC liposomes, 2 mol% lipid II, 1 mM Ca^2+, 100 nM plectasin, HEPES pH 7.2, 20 °C), 1 nM. In addition, the “lipid II binding affinity increase in the presence of Ca^2+” value in data set [1] (neutral DOPC liposomes, with Ca^2+ vs without bivalent ions) is given as greater than 100 fold. The “DPH fluorescence anisotropy (membrane fluidity)” value with S. simulans is given as “decrease in the fluorescence anisotropy”. Moreover, in data set [2], the “lipid II cluster/domain formation on GUVs” value is recorded as “cluster formation”. In addition, the “carboxyfluorescein leakage (in words)” value in data set [3] (DOPC Lipid II vesicles, in the presence of calcium) is “efficiently permeabilized”; in data set [3] (phospholipids native to gram-positive bacteria included in the membrane, with calcium) it was “virtually no leakage”. Besides, in the data set on mammalian cells, the “toxicity against mammalian cells” value was “lack of plectasin toxicity against mammalian cells”.
